According to patent publication US7455976B2, “Method of measuring oxidized LDL/β2-glycoprotein I complex occurring in the living body” (priority 2002, dated 2008):

What was measured:
β2-GPI [1] = target: T1, β2-GPI (Homo sapiens, UniProt P02749); assay: ELISA using a plate coated with the ligand, β2-GPI binding detected by anti-β2-GPI antibody; settings: immobilized lipid; for β2-GPI-binding(OD) w/Cof-22, value in parentheses / β2-GPI-binding(OD) w/EY2C9, value in parentheses / β2-GPI-binding(OD) w/WB-CAL-1, value in parentheses: not explained (method: presence or absence of β2-GPI); for β2-GPI-binding(OD) w/Cof-22: detection with Cof-22; for β2-GPI-binding(OD) w/Cof-22 / β2-GPI-binding(OD) w/EY2C9 / β2-GPI-binding(OD) w/WB-CAL-1: upper value of the pair; for β2-GPI-binding(OD) w/EY2C9: detection with EY2C9; for β2-GPI-binding(OD) w/WB-CAL-1: detection with WB-CAL-1
T1 construct: β2-GPI was purified from plasma in healthy persons; from tissue; host or cells: pooled human plasma from healthy persons
T1 sequence (P02749 20-345): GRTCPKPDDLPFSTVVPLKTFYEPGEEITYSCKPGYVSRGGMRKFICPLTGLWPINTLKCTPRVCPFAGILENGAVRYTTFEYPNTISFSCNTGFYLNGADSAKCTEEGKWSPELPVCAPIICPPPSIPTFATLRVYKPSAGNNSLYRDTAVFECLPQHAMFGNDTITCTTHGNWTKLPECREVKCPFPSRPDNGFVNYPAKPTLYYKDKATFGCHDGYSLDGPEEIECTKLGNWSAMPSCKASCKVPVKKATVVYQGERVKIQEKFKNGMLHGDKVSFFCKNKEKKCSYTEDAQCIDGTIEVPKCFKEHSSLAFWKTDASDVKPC
Protocol: (7) ELISA for Detection of Anti-β2-GPI/Lipid IgG Antibody
CL (derived from bovine heart, manufactured by Sigma), oxLig-1 or 9-COOH-22KC (50 μg/ml ethanol, 50 μl/well) was adsorbed by evaporation onto a polystyrene plate (Immulon 1B; Dynex Technologies Inc.), and this plate was blocked with 1% BSA. In each well, the purified monoclonal autoantibody or serum sample (100-fold dilution) was incubated for 1 hour in the presence or absence of β2-GPI (25 μg/ml), and then HRP-labeled anti-mouse IgG or anti-human IgG or IgM was added to each well.
The subsequent step was carried out according to the method described in the “ELISA for detection of β2-GPI/oxLDL complex”. The optical density (OD) of each sample was corrected by the average OD of the blank wells, and its antibody titer was calculated by using the positive standard in the living body. When the antibody titer in a sample was more than 3 times as high as the standard deviation of the mean of plasma samples from 50 healthy persons, the sample was expressed as positive.

β2-GPI [2] = target: T1, β2-GPI; assay: Ligand blotting analysis on a TLC plate; format: binding; settings: detection by Cof-22 antibody and EY2C9 antibody; FIG. 1
Protocol: FIG. 1 is a graph showing ligand blotting analysis of two ω-carbdxylmutants (oxLig-1 and 9-COOH-22KC) of oxysterol ester. The ligand developed on a TLC plate was stained with I2 vapor (A), and the ligand blotting was conducted by using anti-β2-GPI antibody (Cof-22 (B) and EY2C9 (C)).
(5) Ligand Blotting Analysis on a Thin-Layer Chromatography (TLC) Plate
For conducting TLC ligand blotting, the lipid was spotted on a Polygram silica gel G plate (manufactured by Machery-Nagel) and developed with chloroform/methanol (8/1, v/v). The ligand blotting analysis was conducted according to a method described in [reference 7]. That is, the plate was dried and blocked with PBS containing 1% bovine serum albumin (BSA), and then the plate was incubated for 1 hour together with the β2-GPI and anti-β2-GPI antibodies (Cof-22 and EY2C9). Then, the plate was incubated for 1 hour with horseradish peroxidase (HRP)-labeled anti-mouse IgG antibody or anti-human IgM antibody. Between each step, the plate was washed sufficiently with PBS. Coloration was conducted using H2O2 and 4-methoxy-1-naphthol. In a TLC plate of control, the separated ligand was stained with I2 vapor.

Compound | β2-GPI-binding(OD) w/Cof-22, value in parentheses (β2-GPI [1]) | β2-GPI-binding(OD) w/EY2C9, value in parentheses (β2-GPI [1]) | β2-GPI-binding(OD) w/WB-CAL-1, value in parentheses (β2-GPI [1]) | β2-GPI-binding(OD) w/Cof-22 (β2-GPI [1]) | β2-GPI-binding(OD) w/EY2C9 (β2-GPI [1]) | β2-GPI-binding(OD) w/WB-CAL-1 (β2-GPI [1]) | β2-GPI binding in ligand blotting (β2-GPI [2])
CC(C)CCC(=O)[C@@H](C)[C@H]1CC[C@H]2[C@@H]3CC=C4C[C@@H](OC(=O)CCCCCCCCC(=O)O)CC[C@]4(C)[C@H]3CC[C@]12C [9-COOH-22KC, 22-Ketocholesteryl-9-carboxynonanoate] | (0.067 +/− 0.013) OD | (0.046 +/− 0.008) OD | (0.031 +/− 0.011) OD | 0.217 +/− 0.016 OD | 0.130 +/− 0.024 OD | 0.063 +/− 0.004 OD | –
CC(C)CCC[C@@H](C)[C@H]1CC[C@H]2[C@@H]3C(=O)C=C4C[C@@H](OC(=O)CCCCCCCCC(=O)O)CC[C@]4(C)[C@H]3CC[C@]12C [oxLig-1, 7-ketocholesteryl-9-carboxynonanoate] | (0.041 +/− 0.001) OD | (0.013 +/− 0.001) OD | (0.013 +/− 0.004) OD | 1.194 +/− 0.099 OD | 0.878 +/− 0.031 OD | 0.441 +/− 0.007 OD | bound predominantly
